# Source: patent US7161032B2, “Sulfonamide derivatives, insecticides for agricultural and horticultural use, and usage thereof” (Nihon Nohyaku Co., Ltd., priority 2002, dated 2007)
# Legend:
# Format in all cases: in vivo
# [1] = tested on: Diamond Back Moth (Plutella xylostella); assay: Insecticidal effect on diamond back moth (Test Example 1): egg-bearing Chinese cabbage seedling immersed in 50 ppm liquid chemical
# Procedure, shortened: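 Seedlings bearing 2-day-old eggs dipped about 30 s in 50 ppm formulated compound, air-dried, held at 25° C. Hatched larvae counted 6 days after immersion; mortality calculated and graded by criterion. Triplicate groups of 10 insects.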
# [2] = tested on: Smaller Tea Tortrix (Adoxophyes sp.); assay: Insecticidal effect on smaller tea tortrix (Test Example 3): tea leaves immersed in 50 ppm liquid chemical; settings: smaller tea tortrix (Adoxophyes sp.) larvae, 8 days after inoculation, 25° C., humidity 70%
# Procedure, shortened: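 Tea leaves dipped about 30 seconds in 50 ppm compound preparation, air-dried, then infested with larvae and held at 25° C and 70% humidity. Dead and alive counted 8 days after inoculation; triplicate groups of 10 insects.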
# [3] = tested on: Common Cutworm (Spodoptera litura); assay: Insecticidal effect on common cutworm (Test Example 2): cabbage leaf piece immersed in 50 ppm liquid chemical; settings: common cutworm (Spodoptera litura) second-instar larvae, 8 days after inoculation, 25° C.
# Procedure, shortened: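 Cabbage leaf pieces (cv. Shikidori) dipped ~30 s in formulated compound at 50 ppm and air-dried. Second-instar larvae added, kept at 25° C. Dead and alive counted at 8 days to give % mortality, scored against a criterion scale; three groups of 10 insects.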
Structure (SMILES),"Insecticidal effect (mortality grade), Test Example 1 [1]","Insecticidal effect (mortality grade), Test Example 3 [2]","Insecticidal effect (mortality grade), Test Example 2 [3]"
Cc1cc(C(F)(C(F)(F)F)C(F)(F)F)ccc1NC(=O)c1cccc(I)c1C(=O)NC(C)CS(=O)(=O)NCc1ccc(SC(F)(F)F)cc1 (stereo not drawn) [1-38],A (Mortality 100%),A (Mortality 100%),A (Mortality 100%)
Cc1cc(C(F)(C(F)(F)F)C(F)(F)F)ccc1NC(=O)c1cccc(I)c1C(=O)NC(C)CS(=O)(=O)NCc1cccnc1 (stereo not drawn) [1-40],A (Mortality 100%),A (Mortality 100%),A (Mortality 100%)
CCCCNS(=O)(=O)CC(C)(C)NC(=O)c1c(I)cccc1C(=O)Nc1ccc(C(F)(C(F)(F)F)C(F)(F)F)cc1C [1-180],A (Mortality 100%),A (Mortality 100%),C (Mortality 89–80%)
CSC[C@H](C)NS(=O)(=O)C[C@H](C)NC(=O)c1c(I)cccc1C(=O)Nc1ccc(C(F)(C(F)(F)F)C(F)(F)F)cc1C [1-147],A (Mortality 100%),A (Mortality 100%),A (Mortality 100%)
CCN(CC)S(=O)(=O)CC(C)(C)NC(=O)c1c(I)cccc1C(=O)Nc1ccc(C(F)(C(F)(F)F)C(F)(F)F)cc1C [1-179],A (Mortality 100%),A (Mortality 100%),A (Mortality 100%)
Cc1cc(C(F)(C(F)(F)F)C(F)(F)F)ccc1NC(=O)c1cccc(I)c1C(=O)NC(C)CS(=O)(=O)NCCc1ccccc1 (stereo not drawn) [1-47],A (Mortality 100%),A (Mortality 100%),A (Mortality 100%)
Cc1cc(C(F)(C(F)(F)F)C(F)(F)F)ccc1NC(=O)c1cccc(I)c1C(=O)NC(C)(C)CS(=O)(=O)NCC[S+](C)[O-] (stereo not drawn) [1-82],A (Mortality 100%),A (Mortality 100%),A (Mortality 100%)
Cc1cc(C(F)(C(F)(F)F)C(F)(F)F)ccc1NC(=O)c1cccc(I)c1C(=O)NC(C)(C)CS(=O)(=O)N1CCCC1 [1-181],A (Mortality 100%),A (Mortality 100%),A (Mortality 100%)
CCNS(=O)(=O)CC(C)(C)NC(=O)c1c(I)cccc1C(=O)Nc1ccc(C(F)(C(F)(F)F)C(F)(F)F)cc1C [1-178],A (Mortality 100%),A (Mortality 100%),A (Mortality 100%)
Cc1cc(C(F)(C(F)(F)F)C(F)(F)F)ccc1NC(=O)c1cccc(I)c1C(=O)N[C@@H](C)CS(=O)(=O)N[C@@H](C)CS(C)(=O)=O [1-149],A (Mortality 100%),A (Mortality 100%),A (Mortality 100%)
Cc1cc(C(F)(C(F)(F)F)C(F)(F)F)ccc1NC(=O)c1cccc(I)c1C(=O)NC(C)CS(=O)(=O)NC(C)c1ccccc1 (stereo not drawn) [1-44],A (Mortality 100%),A (Mortality 100%),A (Mortality 100%)
Cc1cc(C(F)(C(F)(F)F)C(F)(F)F)ccc1NC(=O)c1cccc(I)c1C(=O)NC(C)(C)CS(=O)(=O)N(C)C [1-177],A (Mortality 100%),A (Mortality 100%),A (Mortality 100%)
Cc1cc(C(F)(C(F)(F)F)C(F)(F)F)ccc1NC(=O)c1cccc(I)c1C(=O)NC(C)CS(=O)(=O)N(C)Cc1ccccc1 (stereo not drawn) [1-42],A (Mortality 100%),A (Mortality 100%),A (Mortality 100%)
CCN(CC)S(=O)(=O)CC(C)NC(=O)c1c(I)cccc1C(=O)Nc1ccc(OC(F)(F)F)cc1C (stereo not drawn) [1-276],A (Mortality 100%),E (Mortality less than 50%),E (Mortality less than 50%)
CCCCNS(=O)(=O)CC(C)NC(=O)c1c(Br)cccc1C(=O)Nc1ccc(C(F)(C(F)(F)F)C(F)(F)F)cc1C (stereo not drawn) [1-217],A (Mortality 100%),A (Mortality 100%),A (Mortality 100%)
CSCCNS(=O)(=O)CC(C)(C)NC(=O)c1c(I)cccc1C(=O)Nc1ccc(C(F)(F)C(F)(F)F)cc1C [1-304],A (Mortality 100%),A (Mortality 100%),A (Mortality 100%)
COCCNS(=O)(=O)CC(C)NC(=O)c1c(I)cccc1C(=O)Nc1ccc(C(F)(C(F)(F)F)C(F)(F)F)cc1C (stereo not drawn) [1-73],A (Mortality 100%),A (Mortality 100%),A (Mortality 100%)
COCCNS(=O)(=O)CC(C)(C)NC(=O)c1c(I)cccc1C(=O)Nc1ccc(C(F)(C(F)(F)F)C(F)(F)F)cc1C [1-79],A (Mortality 100%),A (Mortality 100%),A (Mortality 100%)
CNS(=O)(=O)CC(C)(C)NC(=O)c1c(I)cccc1C(=O)Nc1ccc(C(F)(C(F)(F)F)C(F)(F)F)cc1C [1-176],A (Mortality 100%),A (Mortality 100%),A (Mortality 100%)
Cc1cc(C(F)(C(F)(F)F)C(F)(F)F)ccc1NC(=O)c1cccc(I)c1C(=O)NC(C)CS(=O)(=O)NC(C)(C)C (stereo not drawn) [1-14],A (Mortality 100%),A (Mortality 100%),A (Mortality 100%)
COc1ccccc1CNS(=O)(=O)CC(C)NC(=O)c1c(I)cccc1C(=O)Nc1ccc(C(F)(C(F)(F)F)C(F)(F)F)cc1C (stereo not drawn) [1-27],A (Mortality 100%),A (Mortality 100%),A (Mortality 100%)
Cc1cc(C(F)(C(F)(F)F)C(F)(F)F)ccc1NC(=O)c1cccc(I)c1C(=O)NC(C)CS(=O)(=O)NCc1ccncc1 (stereo not drawn) [1-41],A (Mortality 100%),A (Mortality 100%),A (Mortality 100%)
Cc1cc(C(F)(C(F)(F)F)C(F)(F)F)ccc1NC(=O)c1cccc(I)c1C(=O)NC(C)CS(=O)(=O)NC(C)C[S+](C)[O-] (stereo not drawn) [1-92],A (Mortality 100%),A (Mortality 100%),A (Mortality 100%)
COc1ccc(NS(=O)(=O)CC(C)NC(=O)c2c(I)cccc2C(=O)Nc2ccc(C(F)(C(F)(F)F)C(F)(F)F)cc2C)cc1 (stereo not drawn) [1-111],A (Mortality 100%),E (Mortality less than 50%),E (Mortality less than 50%)
Cc1cc(C(F)(C(F)(F)F)C(F)(F)F)ccc1NC(=O)c1cccc(I)c1C(=O)NC(C)(C)CS(=O)(=O)NCC[S+]([O-])c1ccccc1 (stereo not drawn) [1-88],A (Mortality 100%),A (Mortality 100%),A (Mortality 100%)
CCNS(=O)(=O)CC(C)NC(=O)c1c(Br)cccc1C(=O)Nc1ccc(C(F)(C(F)(F)F)C(F)(F)F)cc1C (stereo not drawn) [1-212],A (Mortality 100%),A (Mortality 100%),A (Mortality 100%)
CC[S+]([O-])CCNS(=O)(=O)CC(C)(C)NC(=O)c1c(I)cccc1C(=O)Nc1ccc(C(F)(C(F)(F)F)C(F)(F)F)cc1C (stereo not drawn) [1-85],A (Mortality 100%),A (Mortality 100%),A (Mortality 100%)
CSCC(C)(C)NS(=O)(=O)CC(C)NC(=O)c1c(I)cccc1C(=O)Nc1ccc(C(F)(C(F)(F)F)C(F)(F)F)cc1C (stereo not drawn) [1-94],A (Mortality 100%),A (Mortality 100%),A (Mortality 100%)
Cc1cc(C(F)(C(F)(F)F)C(F)(F)F)ccc1NC(=O)c1cccc(I)c1C(=O)NC(C)CS(=O)(=O)Nc1ccc(F)cc1 (stereo not drawn) [1-110],A (Mortality 100%),E (Mortality less than 50%),E (Mortality less than 50%)
Cc1cc(C(F)(C(F)(F)F)C(F)(F)F)ccc1NC(=O)c1cccc(I)c1C(=O)NC(C)(C)CS(=O)(=O)N1CCS(=O)(=O)CC1C (stereo not drawn) [1-63],A (Mortality 100%),A (Mortality 100%),A (Mortality 100%)
